From PubChem BioAssay (NCI)
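Method: 48-hour compound exposure of cells in 96-well plates, five concentrations, linear interpolation of endpoints. GI50 is the concentration that inhibits growth by half. TGI marks complete inhibition of growth.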

Experiments:
Test in all cases: growth of human tumour cells (NCI), 48 h
MOLT-4 leukemia = tested on: MOLT-4 leukemia
SN12C renal = tested on: SN12C renal
CCRF-CEM leukemia = tested on: CCRF-CEM leukemia
MDA-MB-231 breast = tested on: MDA-MB-231 breast
SK-MEL-28 melanoma = tested on: SK-MEL-28 melanoma
T-47D breast = tested on: T-47D breast
NCI/ADR-RES ovarian = tested on: NCI/ADR-RES ovarian
786-0 renal = tested on: 786-0 renal
SK-MEL-2 melanoma = tested on: SK-MEL-2 melanoma
NCI-H23 lung = tested on: NCI-H23 lung
UACC-257 melanoma = tested on: UACC-257 melanoma
SW-620 colon = tested on: SW-620 colon
OVCAR-8 ovarian = tested on: OVCAR-8 ovarian
MCF7 breast = tested on: MCF7 breast
SR leukemia = tested on: SR leukemia
HT29 colon = tested on: HT29 colon
HL-60(TB) leukemia = tested on: HL-60(TB) leukemia
MALME-3M melanoma = tested on: MALME-3M melanoma
CAKI-1 renal = tested on: CAKI-1 renal
ACHN renal = tested on: ACHN renal
MDA-MB-435 = tested on: MDA-MB-435
A549 NSCLC = tested on: A549 NSCLC
COLO 205 colon = tested on: COLO 205 colon
A498 renal = tested on: A498 renal
PC-3 prostate = tested on: PC-3 prostate
BT-549 breast = tested on: BT-549 breast
OVCAR-4 ovarian = tested on: OVCAR-4 ovarian
SF-268 CNS = tested on: SF-268 CNS
OVCAR-5 ovarian = tested on: OVCAR-5 ovarian
HCT-116 colon = tested on: HCT-116 colon

SMILES: O=C(COc1ccc(NC(=O)Nc2ccc(Cl)c(Cl)c2)cc1)N=Nc1c(O)[nH]c2ccccc12
- GI50 (MOLT-4 leukemia): 3.67 µM
- TGI (MOLT-4 leukemia): 19.8 µM
- GI50 (SN12C renal): 1.77 µM
- TGI (SN12C renal): 3.77 µM
- GI50 (CCRF-CEM leukemia): 3.97 µM
- TGI (CCRF-CEM leukemia): 20.8 µM
- GI50 (MDA-MB-231 breast): 1.96 µM
- TGI (MDA-MB-231 breast): 4.7 µM
- GI50 (SK-MEL-28 melanoma): 2.12 µM
- TGI (SK-MEL-28 melanoma): 5.07 µM
- GI50 (T-47D breast): 10.6 µM
- TGI (T-47D breast): 25.2 µM
- GI50 (NCI/ADR-RES ovarian): > 100 µM
- TGI (NCI/ADR-RES ovarian): > 100 µM
- GI50 (786-0 renal): 2.69 µM
- TGI (786-0 renal): 6.27 µM
- GI50 (SK-MEL-2 melanoma): 12.1 µM
- TGI (SK-MEL-2 melanoma): 25.9 µM
- GI50 (NCI-H23 lung): 2.91 µM
- TGI (NCI-H23 lung): 8.31 µM
- GI50 (UACC-257 melanoma): 2.96 µM
- TGI (UACC-257 melanoma): 10 µM
- GI50 (SW-620 colon): 1.72 µM
- TGI (SW-620 colon): 3.79 µM
- GI50 (OVCAR-8 ovarian): 2.1 µM
- TGI (OVCAR-8 ovarian): 4.84 µM
- GI50 (MCF7 breast): 2.49 µM
- TGI (MCF7 breast): 7.48 µM
- GI50 (SR leukemia): 4.65 µM
- TGI (SR leukemia): 32.9 µM
- GI50 (HT29 colon): 1.97 µM
- TGI (HT29 colon): 4 µM
- GI50 (HL-60(TB) leukemia): 20.8 µM
- TGI (HL-60(TB) leukemia): 71.6 µM
- GI50 (MALME-3M melanoma): 1.83 µM
- TGI (MALME-3M melanoma): 3.76 µM
- GI50 (CAKI-1 renal): 4.69 µM
- TGI (CAKI-1 renal): 17.1 µM
- GI50 (ACHN renal): 7.78 µM
- TGI (ACHN renal): 36.2 µM
- GI50 (MDA-MB-435): 2.05 µM
- TGI (MDA-MB-435): 4.8 µM
- GI50 (A549 NSCLC): 2.97 µM
- TGI (A549 NSCLC): 8.33 µM
- GI50 (COLO 205 colon): 2.19 µM
- TGI (COLO 205 colon): 5.18 µM
- GI50 (A498 renal): 10.5 µM
- TGI (A498 renal): 23.2 µM
- GI50 (PC-3 prostate): 2.01 µM
- TGI (PC-3 prostate): 6.24 µM
- GI50 (BT-549 breast): 13.7 µM
- TGI (BT-549 breast): 29.7 µM
- GI50 (OVCAR-4 ovarian): 2.47 µM
- TGI (OVCAR-4 ovarian): 8.09 µM
- GI50 (SF-268 CNS): 2.44 µM
- TGI (SF-268 CNS): 6.14 µM
- GI50 (OVCAR-5 ovarian): 3.39 µM
- TGI (OVCAR-5 ovarian): 13.7 µM
- GI50 (HCT-116 colon): 3.22 µM
